# Data reported in patent US8952024B2, “Herbicidal pyrimidone derivatives” (E I du Pont de Nemours and Company, priority 2009, dated 2015).
# What was measured:
# Test in all cases: Test B pre-/postemergence plant response
# Assay type in all cases: in vivo
# [1] = test system: ragweed (common ragweed, Ambrosia elatior); details: Postemergence
# Procedure, shortened: (§1)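 Ratings reflect visual comparison with untreated controls 13 to 15 days after application, from 0 (no effect) to 100 (complete control). Application was preemergence to seeded loam/sand soil or postemergence to 1- to 4-leaf plants, with compound in a non-phytotoxic, surfactant-containing solvent.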
# corn (Zea mays) = details: Postemergence
# Procedure, shortened: as §1
# kochia (Kochia scoparia) = details: Postemergence
# Procedure, shortened: as §1
# [2] = test system: velvetleaf (Abutilon theophrasti); details: Postemergence
# Procedure, shortened: as §1
# [3] = test system: downy bromegrass (Bromus tectorum); details: for Plant response rating, Bromegrass, Downy: Postemergence
# Procedure, shortened: as §1
# [4] = test system: Italian ryegrass (Lolium multiflorum); details: Postemergence
# Procedure, shortened: as §1
# [5] = test system: johnsongrass (Sorghum halepense); details: Postemergence
# Procedure, shortened: as §1
# [6] = test system: Surinam grass (Brachiaria decumbens); details: Postemergence
# Procedure, shortened: as §1
# [7] = test system: giant foxtail (Setaria faberii); details: Postemergence
# Procedure, shortened: as §1
# [8] = test system: blackgrass (Alopecurus myosuroides); details: for Plant response rating, Blackgrass: Postemergence
# Procedure, shortened: as §1
# soybean (Glycine max) = details: Postemergence
# Procedure, shortened: as §1
# [9] = test system: woolly cupgrass (Eriochloa villosa); details: Postemergence
# Procedure, shortened: as §1
# [10] = test system: pigweed (Amaranthus retroflexus); details: Postemergence
# Procedure, shortened: as §1
# [11] = 31 g ai/ha, 0 to 100 scale (0 no effect, 100 complete control)
# [12] = 62 g ai/ha, postemergence, 0 is no effect, 100 is complete control, 13 to 15 days
smiles,measurement,setting,value
Cc1ccccc1-n1c(-c2cc(F)cc(F)c2)ncc(C(=O)C2=C(O)CCCC2=O)c1=O [Compound 159],"Plant response rating, Ragweed","[1]; 8 g ai/ha, 0 to 100 scale",65
same,"Plant response rating, Ragweed","[1]; 16 g ai/ha, 0 to 100 scale",80
same,"Plant response rating, Ragweed",[1]; [11],90
same,"Plant response rating, Corn","corn (Zea mays); 8 g ai/ha, 0 to 100 scale",15
same,"Plant response rating, Corn","corn (Zea mays); 16 g ai/ha, 0 to 100 scale",25
same,"Plant response rating, Corn",corn (Zea mays); [11],60
same,"Plant response rating, Kochia","kochia (Kochia scoparia); 8 g ai/ha, 0 to 100 scale",20
same,"Plant response rating, Kochia","kochia (Kochia scoparia); 16 g ai/ha, 0 to 100 scale",20
same,"Plant response rating, Kochia",kochia (Kochia scoparia); [11],40
same,"Plant response rating, Velvetleaf","[2]; 8 g ai/ha, 0 to 100 scale",98
same,"Plant response rating, Velvetleaf","[2]; 16 g ai/ha, 0 to 100 scale",100
same,"Plant response rating, Velvetleaf",[2]; [11],100
same,"Plant response rating, Bromegrass, Downy","[3]; 8 g ai/ha, 0 to 100 scale",15
same,"Plant response rating, Bromegrass, Downy","[3]; 16 g ai/ha, 0 to 100 scale",15
same,"Bromegrass, Downy plant response rating (0 to 100 scale)",[3]; [12],50
same,"Plant response rating, Bromegrass, Downy",[3]; [11],50
same,"Plant response rating, Ryegrass, Italian","[4]; 8 g ai/ha, 0 to 100 scale",0
same,"Plant response rating, Ryegrass, Italian","[4]; 16 g ai/ha, 0 to 100 scale",0
same,"Plant response rating, Ryegrass, Italian",[4]; [11],30
same,"Plant response rating, Johnsongrass","[5]; 8 g ai/ha, 0 to 100 scale",10
same,"Plant response rating, Johnsongrass","[5]; 16 g ai/ha, 0 to 100 scale",45
same,"Plant response rating, Johnsongrass",[5]; [11],45
same,"Plant response rating, Surinam Grass","[6]; 8 g ai/ha, 0 to 100 scale",65
same,"Plant response rating, Surinam Grass","[6]; 16 g ai/ha, 0 to 100 scale",65
same,"Plant response rating, Surinam Grass",[6]; [11],75
same,"Plant response rating, Foxtail, Giant","[7]; 8 g ai/ha, 0 to 100 scale",75
same,"Plant response rating, Foxtail, Giant","[7]; 16 g ai/ha, 0 to 100 scale",80
same,"Plant response rating, Foxtail, Giant",[7]; [11],85
same,"Plant response rating, Blackgrass","[8]; 8 g ai/ha, 0 to 100 scale",0
same,"Plant response rating, Blackgrass","[8]; 16 g ai/ha, 0 to 100 scale",5
same,Blackgrass plant response rating (0 to 100 scale),[8]; [12],25
same,"Plant response rating, Blackgrass",[8]; [11],20
same,"Plant response rating, Soybean","soybean (Glycine max); 8 g ai/ha, 0 to 100 scale",80
same,"Plant response rating, Soybean","soybean (Glycine max); 16 g ai/ha, 0 to 100 scale",85
same,"Plant response rating, Soybean",soybean (Glycine max); [11],95
same,"Plant response rating, Cupgrass, Woolly","[9]; 8 g ai/ha, 0 to 100 scale",60
same,"Plant response rating, Cupgrass, Woolly","[9]; 16 g ai/ha, 0 to 100 scale",65
same,"Plant response rating, Cupgrass, Woolly",[9]; [11],70
same,"Plant response rating, Pigweed","[10]; 8 g ai/ha, 0 to 100 scale",55
same,"Plant response rating, Pigweed","[10]; 16 g ai/ha, 0 to 100 scale",75
same,"Plant response rating, Pigweed",[10]; [11],95
